Measurements as given in patent US20140271734A1, “BILE ACID RECYCLING INHIBITORS FOR TREATMENT OF BARRETT'S ESOPHAGUS AND GASTROESOPHAGEAL REFLUX DISEASE” (LUMENA PHARMACEUTICALS, INC., priority 2013, published 2014).
Where two headings read alike, the source gives them in different places.

Key:
[1] = Toxicokinetics of LUM001 free form, 13-week oral capsule toxicity study in dogs; type: in vivo, Beagle dogs; set-up: AUC/Dose / Cmax/Dose: unit not given here; conditions: for Cmax / Tmax / AUC(0-t): Beagle, dog, plasma, oral; for AUC(0-t): read-out: AUC(0-24 h), mean
Method: Six- to seven-month old Beagle dogs of body weights of 4.9-9.5 kg (4/sex/group) orally via capsules at 0, 5, 20 or 100 mg/kg for 13 consecutive weeks. Plasma levels of LUM001 (free form) were evaluated on Days 1 and 91. LUM001 was administered by once daily oral gelatin capsules. […] therefore, 105% of a stated dose is given to provide the appropriate amount of compound for dosing. On study Day 1 and Day 91, approximately 2 mL of venous blood was collected in heparinized tubes from the cephalic vein of each animal at 1, 2, 3, 5, 8, and 24 hours post-dose. Blood collection tubes were mixed and placed on ice during the collection period after which they were centrifuged and the plasma was harvested into cryotubes within approximately 60 minutes of blood collection. Plasma samples were stored at approximately −70° C. or lower until analyzed.
The concentration of LUM001 free form in plasma were determined using an LCMSMS method. The assay sensitivity was 5.00 ng/mL for a […] sample.

serum bile acids = assay: Fasting and post-prandial serum bile acids in children and adolescents on LUM001; type: in vivo, human
Method: (§1) LUM001 has been administered to forty patients under the age of 18 years old. […] The drug was administered once-a-day (QD) in the morning for fourteen days. […] These doses are similar to those using to treat patients with Barrett's esophagus or GERD.
The efficacy of LUM001 was determined by measuring total serum bile acids after eight days of dosing in children and adolescents under the age of eighteen. Thirty minutes before the next drug administration, at approximately 8 am in the morning, serum bile acid levels were measured. The child had refrained from food for 12 hours prior to this sample thus providing a fasted level of serum bile acid. After breakfast, serum bile acids were measured for up to the next 4 hours (8 am to noon) and the peak serum bile acid concentration noted.

[2] = Systemic exposure of LUM001 in patients under 18 years (study NB-00-02-014); type: in vivo, human; conditions: for Average serum drug exposure: day eight
Method: as §1

[3] = test system: Alkaline Phosphatase (ALP); conditions: twice daily oral gavage; Week 3
Method: This study was conducted to determine the effects of two non-absorbed ASBTi compounds in the ZDF rat model after 3 weeks of treatment.
Animals were acclimatized for 5-7 days after arrival. […] The 2nd set of study was initiated after completion of the 1st. Test compound formulation prepared every other day and stored at 4° C. […] After 3rd week of treatment blood samples were collected by cardiac puncture from fasted animals for blood chemistry analysis: ALAT, ASAT, GGT, Alkaline Phosphatase and total Bile Acids. Tests were performed in contract clinical laboratory (Liver Profile SA320, Antech Diagnostics, Orange Country, Calif.).
Blood was collected by tail vein bleed weekly and after 3 weeks of treatment by cardiopuncture for serum tests. Data for each group is presented as the Mean Value±SEM. Statistically evaluation by t-test: *P<0.05, **P<0.01,***P<0.001 vs. vehicle group.

GLP-2 = GLP-2 in plasma of non-fasted ZDF rats, 2 weeks treatment; type: in vivo
[4] = both sexes, 5 mg/kg, Day 1, 5 mg/kg, Comb
[5] = both sexes, 5 mg/kg, Day 91, 5 mg/kg, Comb
[6] = both sexes, 20 mg/kg, Day 1, 20 mg/kg, Comb
[7] = both sexes, 20 mg/kg, Day 91, 20 mg/kg, Comb
[8] = both sexes, 100 mg/kg, Day 1, 100 mg/kg, Comb
[9] = both sexes, 100 mg/kg, Day 91, 100 mg/kg, Comb
[10] = female, 5 mg/kg, Day 1, 5 mg/kg, F
[11] = female, 20 mg/kg, Day 1, 20 mg/kg, F
[12] = female, 20 mg/kg, Day 91, 20 mg/kg, F
[13] = female, 100 mg/kg, Day 1, 100 mg/kg, F
[14] = female, 100 mg/kg, Day 91, 100 mg/kg, F
[15] = male, 5 mg/kg, Day 1, 5 mg/kg, M
[16] = male, 5 mg/kg, Day 91, 5 mg/kg, M
[17] = male, 20 mg/kg, Day 1, 20 mg/kg, M
[18] = male, 20 mg/kg, Day 91, 20 mg/kg, M
[19] = male, 100 mg/kg, Day 1, 100 mg/kg, M
[20] = male, 100 mg/kg, Day 91, 100 mg/kg, M

CCCCC1(CCCC)CS(=O)(=O)c2ccc(N(C)C)cc2[C@@H](c2ccc(OCc3ccc(C[N+]45CCN(CC4)CC5)cc3)cc2)[C@H]1O [LUM001]
AUC/Dose ([1]; Day 1, 5 mg/kg, Comb): 3.55 | BA ([1]; Day 1, 5 mg/kg, Comb): 0.1% | Cmax/Dose ([1]; Day 1, 5 mg/kg, Comb): 1.81 | AUC/Dose ([1]; Day 1, 5 mg/kg, F): 4.17 | BA ([1]; Day 1, 5 mg/kg, F): <0.1% | Cmax/Dose ([1]; Day 1, 5 mg/kg, F): 1.87 | AUC/Dose ([1]; Day 1, 5 mg/kg, M): 2.92 | BA ([1]; Day 1, 5 mg/kg, M): <0.1% | Cmax/Dose ([1]; Day 1, 5 mg/kg, M): 1.76 | AUC/Dose ([1]; Day 1, 20 mg/kg, Comb): 3.63 | BA ([1]; Day 1, 20 mg/kg, Comb): 0.1% | Cmax/Dose ([1]; Day 1, 20 mg/kg, Comb): 1.25 | AUC/Dose ([1]; Day 1, 20 mg/kg, F): 2.43 | BA ([1]; Day 1, 20 mg/kg, F): <0.1% | Cmax/Dose ([1]; Day 1, 20 mg/kg, F): 1.27 | AUC/Dose ([1]; Day 1, 20 mg/kg, M): 4.84 | BA ([1]; Day 1, 20 mg/kg, M): <0.1% | Cmax/Dose ([1]; Day 1, 20 mg/kg, M): 1.24 | AUC/Dose ([1]; Day 1, 100 mg/kg, Comb): 2.39 | BA ([1]; Day 1, 100 mg/kg, Comb): <0.1% | Cmax/Dose ([1]; Day 1, 100 mg/kg, Comb): 0.907 | AUC/Dose ([1]; Day 1, 100 mg/kg, F): 3.44 | BA ([1]; Day 1, 100 mg/kg, F): <0.1% | Cmax/Dose ([1]; Day 1, 100 mg/kg, F): 1.17 | AUC/Dose ([1]; Day 1, 100 mg/kg, M): 1.34 | BA ([1]; Day 1, 100 mg/kg, M): <0.1% | Cmax/Dose ([1]; Day 1, 100 mg/kg, M): 0.648 | AUC/Dose ([1]; Day 91, 5 mg/kg, Comb): 0.350 | BA ([1]; Day 91, 5 mg/kg, Comb): <0.1% | Cmax/Dose ([1]; Day 91, 5 mg/kg, Comb): 0.350 | AUC/Dose ([1]; Day 91, 5 mg/kg, F): 0.00 | BA ([1]; Day 91, 5 mg/kg, F): <0.1% | Cmax/Dose ([1]; Day 91, 5 mg/kg, F): 0.00 | AUC/Dose ([1]; Day 91, 5 mg/kg, M): 0.700 | BA ([1]; Day 91, 5 mg/kg, M): <0.1% | Cmax/Dose ([1]; Day 91, 5 mg/kg, M): 0.700 | AUC/Dose ([1]; Day 91, 20 mg/kg, Comb): 2.54 | BA ([1]; Day 91, 20 mg/kg, Comb): 0.1% | Cmax/Dose ([1]; Day 91, 20 mg/kg, Comb): 1.19 | AUC/Dose ([1]; Day 91, 20 mg/kg, F): 2.70 | BA ([1]; Day 91, 20 mg/kg, F): <0.1% | Cmax/Dose ([1]; Day 91, 20 mg/kg, F): 1.25 | AUC/Dose ([1]; Day 91, 20 mg/kg, M): 2.38 | BA ([1]; Day 91, 20 mg/kg, M): <0.1% | Cmax/Dose ([1]; Day 91, 20 mg/kg, M): 1.13 | AUC/Dose ([1]; Day 91, 100 mg/kg, Comb): 5.03 | BA ([1]; Day 91, 100 mg/kg, Comb): 0.2% | Cmax/Dose ([1]; Day 91, 100 mg/kg, Comb): 1.40 | AUC/Dose ([1]; Day 91, 100 mg/kg, F): 6.01 | BA ([1]; Day 91, 100 mg/kg, F): <0.1% | Cmax/Dose ([1]; Day 91, 100 mg/kg, F): 1.82 | AUC/Dose ([1]; Day 91, 100 mg/kg, M): 4.05 | BA ([1]; Day 91, 100 mg/kg, M): <0.1% | Cmax/Dose ([1]; Day 91, 100 mg/kg, M): 0.974 | Cmax [1, 4]: 9.07 ng/mL | Tmax [1, 4]: 1.5 h | AUC(0-t) [1, 4]: 17.7 ng·h/mL | Cmax [1, 5]: 1.75 ng/mL | Tmax [1, 5]: 0.375 h | AUC(0-t) [1, 5]: 1.75 ng·h/mL | Cmax [1, 6]: 25.1 ng/mL | Tmax [1, 6]: 2.13 h | AUC(0-t) [1, 6]: 72.6 ng·h/mL | Cmax [1, 7]: 23.8 ng/mL | Tmax [1, 7]: 1.88 h | AUC(0-t) [1, 7]: 50.8 ng·h/mL | Cmax [1, 8]: 90.7 ng/mL | Tmax [1, 8]: 1.38 h | AUC(0-t) [1, 8]: 239 ng·h/mL | Cmax [1, 9]: 140 ng/mL | Tmax [1, 9]: 2 h | AUC(0-t) [1, 9]: 503 ng·h/mL | Cmax [1, 10]: 9.34 ng/mL | Tmax [1, 10]: 1.25 h | AUC(0-t) [1, 10]: 20.9 ng·h/mL | Tmax ([1]; female, 5 mg/kg, Day 91, 5 mg/kg, F): 0 h | Cmax [1, 11]: 25.3 ng/mL | Tmax [1, 11]: 2 h | AUC(0-t) [1, 11]: 48.5 ng·h/mL | Cmax [1, 12]: 25 ng/mL | Tmax [1, 12]: 2 h | AUC(0-t) [1, 12]: 53.9 ng·h/mL | Cmax [1, 13]: 117 ng/mL | Tmax [1, 13]: 1.5 h | AUC(0-t) [1, 13]: 344 ng·h/mL | Cmax [1, 14]: 182 ng/mL | Tmax [1, 14]: 1.75 h | AUC(0-t) [1, 14]: 601 ng·h/mL | Cmax [1, 15]: 8.79 ng/mL | Tmax [1, 15]: 1.75 h | AUC(0-t) [1, 15]: 14.6 ng·h/mL | Cmax [1, 16]: 3.5 ng/mL | Tmax [1, 16]: 0.75 h | AUC(0-t) [1, 16]: 3.5 ng·h/mL | Cmax [1, 17]: 24.8 ng/mL | Tmax [1, 17]: 2.25 h | AUC(0-t) [1, 17]: 96.7 ng·h/mL | Cmax [1, 18]: 22.6 ng/mL | Tmax [1, 18]: 1.75 h | AUC(0-t) [1, 18]: 47.6 ng·h/mL | Cmax [1, 19]: 64.8 ng/mL | Tmax [1, 19]: 1.25 h | AUC(0-t) [1, 19]: 134 ng·h/mL | Cmax [1, 20]: 97.4 ng/mL | Tmax [1, 20]: 2.25 h | AUC(0-t) [1, 20]: 405 ng·h/mL | Decrease of average fasting serum bile acid vs placebo patients (serum bile acids; LUM001 treated patients): 24% | Decrease of average post-prandial peak serum bile acid vs placebo patients (serum bile acids; LUM001 treated patients): 23% | Average post-prandial peak serum bile acid level (serum bile acids; LUM001 treated patients (placebo 11.9)): 9.2 µmol/L | Morning Post-prandial peak serum bile acid (serum bile acids; Patient 304, 1 mg, after eight days of dosing): 8.4 µmol/L | Morning Post-prandial peak serum bile acid (serum bile acids; Patient 308, 1 mg, after eight days of dosing): 9.3 µmol/L | Morning Post-prandial peak serum bile acid (serum bile acids; Patient 309, 1 mg, after eight days of dosing): 10.0 µmol/L | Morning Post-prandial peak serum bile acid (serum bile acids; Patient 401, 2.5 mg, after eight days of dosing): 6.8 µmol/L | Fasting and post-prandial peak levels of serum bile acids (serum bile acids; children and adolescents, after eight days of dosing): generally decrease both the fasting and post-prandial peak levels of serum bile acids | Average serum drug exposure ([2]; Subject 0304, 1.0 mg QD (24.3 μg/kg)): 0.0 ng/mL | Average serum drug exposure ([2]; Subject 0308, 1.0 mg QD (28.9 μg/kg)): 0.0 ng/mL | Average serum drug exposure ([2]; Subject 0309, 1.0 mg QD (35.0 μg/kg)): 0.0 ng/mL | Average serum drug exposure ([2]; Subject 0410, 2.5 mg QD (42.0 μg/kg)): 0.0 ng/mL | Average serum drug exposure ([2]; Subject 0510, 5.0 mg QD (168.4 μg/kg)): 0.0 ng/mL | Systemic exposure of LUM001 ([2]; patients under 18 years, QD, measured on day eight): confirmed to be minimally absorbed

CCCC[C@]1(CC)CS(=O)(=O)c2ccc(N(C)C)cc2[C@@H](c2cccc(NC(=O)N[C@@H]3O[C@H](COS(=O)(=O)[O-])[C@@H](O)[C@H](OCc4ccccc4)[C@H]3O)c2)[C@H]1O.CCO.O.[K+] [LUM002, potassium((2R,3R,4S,5R,6R)-4-benzyloxy-6-{3-[3-((3S,4R,5R)-3-butyl-7-dimethylamino-3-ethyl-4-hydroxy-1,1-dioxo-2,3,4,5-tetrahydro-1H-benzo[b]thiepin-5-yl)-phenyl]-ureido}-3,5-dihydroxy-tetrahydro-pyran-2-ylmethyl)sulphate ethanolate, hydrate]
Plasma alkaline phosphatase (ALP) [3]: significant reductions in ALP | GLP-2 in plasma (GLP-2): significant elevations in GLP2 at higher doses
